In patent publication US6635628B2, “Methods of administering camptothecin compounds for the treatment of cancer with reduced side effects” (The George Washington University, priority 1998, dated 2003):

Key:
[1] = system: intestinal cells from whole small-intestine; test: Uptake of 14C-labeled CPT-11 and SN-38 by intestinal cells, regions combined or not distinguished (TCA, pH, bicarbonate effects)
Description: By adding the drugs to Hank's solution containing intestinal cells from whole small-intestine, uptake studies were performed.
Intestinal cells were isolated as previously described (28, 29). Briefly, male hamsters were anesthetized with sodium pentobarbital (Nembutol 70 mg/kg body weight). The entire intestine was removed. The intestinal lumen was washed with 37° C. Hank's solution. Sacs of the ileum (12.5 cm from cecum) and jejunum (remaining small intestine) were rinsed, as well as the intestinal sacs of the anal site of small intestine (12.5 cm from cecum) and oral site (the other small intestine). The sacs were rinsed with oxygenated buffer solution containing sodium citrate (96 mM NaCl, 1.5 mM KCl, 5.6 mM KH2PO4, 27 mM sodium citrate, pH 7.3), and incubated for 10 min in the same buffer at 37° C. The sacs were then emptied, filled with oxygenated buffer solution containing EDTA (140 mM NaCl, 16 mM Na2HPO4, 2 mM EDTA, 0.5 mM dithiothreitol, pH 7.3), incubated for 10 min at 37° C. Then each sac was placed onto a petri dish and gently vortexed for 1 min. The buffer containing intestinal cells was recovered in 50 mL of Hanks' solution, washed twice and adjusted at 10^6 cells/ml in Hanks' medium (cellular stock solution containing 0.5% bovine serum albumin, pH 7.4).
The cellular suspension of 0.95 ml was incubated for 15 min in a 37° C. water bath with stirring. Uptake was started by the addition of 0.05 ml PBS (at pH 3 or 9) containing labeled SN-38 or CPT-11 at 37° C. At various time intervals, 100 μL, sample aliquots were diluted into 3 mL of Hank's medium at 4° C. to stop the uptake. The stop solution containing the cells was filtered through a glass microfiber filter (Glass Fiber Filter Circles G4, Fisherbrand, Pa.) under vacuum (20 psi). The cells were washed once with 5 mL of 0.5% bovine serum albumin-containing Hanks' medium (4° C.) and once with 20 mL of Hanks' solution (4° C.). The filters were placed in a vial containing 4 mL of scintillation liquid (Ultra Gold, Packard, Conn.) and the radioactivity was counted in a β scintillation counter (LS3801, Beckman, Md.).
The effect of the metabolic inhibitor, 2,4 dinitrophenol (1 mM), was studied by adding this agent to the cells 3 min prior to either ^14C-CPT-11 or ^14C-SN-38 (2 μM). The effect of 20 mM of taurocholic acid (TCA) on the uptake of both CPT-11 and SN-38 was investigated following overnight incubation of ^14C-CPT-11 (20 μM) and ^14C-SN-38 (2 μM) in Hank's solution, at pH 7.4 and in the presence and absence of TCA. The effect of 200 μM of DNP-SG or SN-38-Glu was also studied by adding these agents to the cell preparation 7 min prior to either ^14C-CPT-11 (20 μM) and ^14C-SN-38 (2 μM).
The effect of physiologic pH on the initial intestinal uptake rate of CPT-11 and SN-38 was investigated following overnight incubation of ^14C-CPT-11 (20 μM) and ^14C-SN-38 (2 μM) in phosphate buffered saline at pH 6.2, 6.8, 7.4 and 8, respectively.
The initial rate of uptake of CPT-11 or SN-38 was derived from the linear regression analysis of the respective regression line obtained from the plot of the uptake as a function of time. The initial rates of uptake were plotted against the corresponding concentration. The data were fitted by least-squares nonlinear regression analysis (SigmaStat, Jandel Scientific, CA), using the equation V=(Vmax·S)/(Km+S)+Kd·S where V represents the initial rate of uptake. Vmax is the maximum rate of uptake, Km is the apparent Michaelis constant, Kd is the rate of diffusion and S is the concentration of CPT-11 or SN-38.

[2] = assay type: physicochemical; conditions: 1,000-molecular weight cut-off membrane
Text: Monomers were separated from micellar aggregates by ultrafiltration through a 1000-molecular weight cut-off membrane (YM1) as described in Materials and Methods. Values are the monomeric forms of the indicated metabolites, expressed as a percentage (%) of the concentration of the initial solution before ultrafiltration. Comparison between TCA and control was estimated by Mann-Whitney test. […] Abbreviations used: CPT lactone (CPT lact.); CPT carboxylate (CPT carb.); SN-38 lactone (SN lact.); and SN-38 carboxylate (SN carb.).

topoisomerase I = target: T1, topoisomerase I (Homo sapiens, UniProt P11387); conditions: cited from earlier work
T1 sequence (P11387 1-765): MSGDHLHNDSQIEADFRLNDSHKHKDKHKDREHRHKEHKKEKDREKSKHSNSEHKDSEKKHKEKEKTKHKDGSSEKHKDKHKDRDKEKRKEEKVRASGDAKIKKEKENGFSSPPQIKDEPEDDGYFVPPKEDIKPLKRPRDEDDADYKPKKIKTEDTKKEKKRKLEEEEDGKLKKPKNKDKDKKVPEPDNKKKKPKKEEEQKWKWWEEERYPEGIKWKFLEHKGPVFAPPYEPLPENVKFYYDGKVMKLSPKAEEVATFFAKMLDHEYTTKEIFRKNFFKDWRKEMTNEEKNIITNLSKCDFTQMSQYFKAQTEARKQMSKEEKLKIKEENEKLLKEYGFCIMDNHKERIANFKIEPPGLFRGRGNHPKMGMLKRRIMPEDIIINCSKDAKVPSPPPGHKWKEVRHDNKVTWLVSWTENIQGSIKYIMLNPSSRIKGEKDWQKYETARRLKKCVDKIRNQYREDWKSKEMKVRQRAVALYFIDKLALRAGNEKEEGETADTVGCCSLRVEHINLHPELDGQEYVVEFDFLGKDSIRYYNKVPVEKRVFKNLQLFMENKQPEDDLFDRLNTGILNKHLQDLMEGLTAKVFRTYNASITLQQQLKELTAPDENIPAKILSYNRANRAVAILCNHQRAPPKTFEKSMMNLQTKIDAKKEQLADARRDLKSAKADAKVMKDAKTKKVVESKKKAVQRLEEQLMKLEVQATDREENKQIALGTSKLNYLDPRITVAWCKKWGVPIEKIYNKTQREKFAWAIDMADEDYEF

HT29 cells [3] = test: Initial uptake rate of [14C]SN-38 by HT29 cells as a function of pH; assay type: in vitro ADME
Description: The uptake study was initiated by adding the compounds to Hanks' solution containing HT29 cells. The comparative initial rate of uptake as function of pH was analyzed by Kruskal-Wallis test (p<0.001) and Dunn's method (*p<0.05).
Uptake of ^14C-labeled CPT-11 and SN-38 was measured by rapid vacuum filtration assay (28, 29).

HT29 cells [4] = test: Cytotoxicity assay (MTT, mitochondrial dehydrogenase activity) in HT29 cells; assay type: cell-based; conditions: 0.4 μM SN-38; 24 h exposure, 24 h drug-free; pH 6.2, 6.8, 7.4, 8.0
Description: Rapid colorimetric assay for mitochondrial dehydrogenase activity was modified and used for the estimation of cytotoxicity of SN-38 (Mosmann, 1983). […] After 24 h-exposure, the cells were washed twice, and subjected to a drug-free incubation for 24 h. Then, the cells were incubated with 0.5 mg/ml 3-(4,5-dimethylthiazol-2-yl)-2,5-diphenyl-tetrazolium bromide (MTT) for 4 h, and the blue formazan crystals were solubilized by addition of 10% n-dodecylsulfate sodium salt (SDS) in 0.1N HCl and overnight incubation. The formation of the blue formazan compound is spectrophotometrically determined at 560 nm (Ultraspec 4050, LKB, Bromma, Sweden).

Solubility in water = assay type: physicochemical
[5] = cited from earlier work
[6] = rat; 24 h after IV injection of 14C-SN-38; cited from earlier work
[7] = bile of two men treated by cisplatin who received CPT-11 intravenously; cited from earlier work

SMILES	transport mechanism in intestinal cells [1]	saturability of the uptake (predominant component) ([1]; jejunal and ileal cells, SN-38 concentrations lower than 2 μM)	effect of TCA on % monomer concentration / association to TCA micelles [2]	topoisomerase I-inhibitory activity (topoisomerase I)	initial uptake rate at acidic pH (pH 6.2 and 6.8) versus neutral or alkaline pH (pH 7.4 and 8) [1]	initial uptake rate in the presence of 20 mM TCA ([1]; cells from jejunum and ileum combined, 14C-CPT-11 20 μM, 14C-SN-38 2 μM, pH 7.4, mean±SD, n=5)	decrease of the uptake rate at a pH greater than 6.8 ([1]; pH 6.2)	uptake when HEPES of the Hank's buffer was replaced by sodium bicarbonate ([1]; pH adjusted to greater than 7)	initial rate of uptake in HT-29 cells compared with isolated hamster intestinal cells (HT29 cells [3])	uptake rate in HT29 cells as a function of pH (HT29 cells [3]; 2 μM [14C]SN-38, pH 6.2, 6.8, 7.4, 8.0)	cytotoxicity for HT29 cells as a function of pH (HT29 cells [4])	solubility in water (Solubility in water)	share in lactone form at pH 7.4 [5] [%]	distribution of radioactivity [6]	share of the biliary content [7]
CCc1c2c(nc3ccc(O)cc13)-c1cc([C@@](O)(CC)C(=O)O)c(CO)c(=O)n1C2 [SN-38 carboxylate]	actively absorbed	mostly non-saturable	did not significantly associate to TCA micelles	only minor	–	–	–	–	–	–	–	–	–	–	–
CCc1c2c(nc3ccc(O)cc13)-c1cc3c(c(=O)n1C2)COC(=O)[C@]3(O)CC [SN-38, 7-ethyl-10-hydroxy-camptothecin]	–	–	–	–	several times greater	69.3±12.7 % of control without TCA	around 65%	decreased	lower in HT-29 cells than in isolated hamster intestinal cells	significantly greater at pH 6.2 and 6.8, than at pH 7.4 and 8.0	significantly higher at pH 6.2 and 6.8 than at pH 7.4 and 8.0	poorly soluble in water	13	found exclusively in the gastrointestinal tract	0.9-3.3%
